Measured values published in article PMC6271077, “Synthesis, Anticancer and Antibacterial Activity of Salinomycin N-Benzyl Amides” (Molecules, 2014).
≈ marks a conversion by molar mass, not a printed value. Where two headings read alike, the source gives them in different places.

Legend:
[1] = system: MRSA 456/11; assay: MIC microdilution, hospital MRSA; type: cell-based; conditions: Staphylococcus aureus
[2] = system: S. aureus ATCC 29213; assay: MIC microdilution; type: cell-based; conditions: Staphylococcus aureus
[3] = system: MRSE 467/11; assay: MIC microdilution, hospital MRSE; type: cell-based; conditions: Staphylococcus epidermidis
[4] = system: MRSE 489/11; assay: MIC microdilution, hospital MRSE; type: cell-based; conditions: Staphylococcus epidermidis
[5] = system: S. aureus ATCC 6538; assay: MIC microdilution; type: cell-based; conditions: Staphylococcus aureus
[6] = system: MRSA and MRSE; assay: MIC microdilution, MRSA and MRSE overall (range given); type: cell-based; conditions: hospital MRSA and MRSE strains
[7] = system: M. tuberculosis isoniazid-sensitive strain (spec. 192); assay: Tuberculostatic activity, test-tube dilution; type: cell-based; conditions: Mycobacterium tuberculosis, read-out: MIC M. tuberculosis Isoniazid-Sensitive Strain
[8] = system: MRSA 573/12; assay: MIC microdilution, hospital MRSA; type: cell-based; conditions: Staphylococcus aureus
[9] = system: LoVo/dx; assay: Antiproliferative SRB assay, LoVo/dx; type: cell-based, human; conditions: for IC50: Homo sapiens, LoVo/DX, 72 h, read-out: IC50 LoVo/dx; for IR LoVo/DX: IR = IC50 LoVo/dx / IC50 LoVo; for SI LoVo/DX: SI = IC50 BALB/3T3 / IC50 LoVo/dx
[10] = system: LoVo; assay: Antiproliferative SRB assay, LoVo; type: cell-based, human; conditions: for IC50: Homo sapiens, LoVo, 72 h, read-out: IC50 LoVo; for SI LoVo: SI = IC50 BALB/3T3 / IC50 LoVo
[11] = system: S. epidermidis ATCC 35984; assay: MIC microdilution; type: cell-based; conditions: Staphylococcus epidermidis
[12] = system: standard and "wild" strains of M. tuberculosis; assay: Tuberculostatic activity, all M. tuberculosis strains (overall); type: cell-based; conditions: Mycobacterium tuberculosis, H37RV, read-out: MIC (over M. tuberculosis strains)
[13] = system: MRSE 469/11; assay: MIC microdilution, hospital MRSE; type: cell-based; conditions: Staphylococcus epidermidis
[14] = system: S. aureus ATCC 25923; assay: MIC microdilution; type: cell-based; conditions: Staphylococcus aureus
[15] = system: MRSE 466/11; assay: MIC microdilution, hospital MRSE; type: cell-based; conditions: Staphylococcus epidermidis
[16] = system: M. tuberculosis standard H37Rv strain; assay: Tuberculostatic activity, test-tube dilution; type: cell-based; conditions: Mycobacterium tuberculosis, read-out: MIC M. tuberculosis Standard H37Rv Strain
[17] = system: MRSA 585/12; assay: MIC microdilution, hospital MRSA; type: cell-based; conditions: Staphylococcus aureus
[18] = system: S. epidermidis ATCC 12228; assay: MIC microdilution; type: cell-based; conditions: Staphylococcus epidermidis
[19] = system: MRSE 459/11; assay: MIC microdilution, hospital MRSE; type: cell-based; conditions: Staphylococcus epidermidis
[20] = system: MRSE 470/11; assay: MIC microdilution, hospital MRSE; type: cell-based; conditions: Staphylococcus epidermidis
[21] = hospital MRSA strain 456/11, read-out: MIC
[22] = ATCC29213, S. aureus ATCC 29213, 18 h, 35 °C, read-out: MIC
[23] = hospital MRSE strain 467/11, read-out: MIC
[24] = hospital MRSE strain 489/11, read-out: MIC
[25] = ATCC6538, S. aureus ATCC 6538, 18 h, 35 °C, read-out: MIC
[26] = hospital MRSA strain 573/12, read-out: MIC
[27] = ATCC35984, S. epidermidis ATCC 35984, 18 h, 35 °C, read-out: MIC
[28] = hospital MRSE strain 469/11, read-out: MIC
[29] = ATCC25923, S. aureus ATCC 25923, 18 h, 35 °C, read-out: MIC
[30] = hospital MRSE strain 466/11, read-out: MIC
[31] = hospital MRSA strain 585/12, read-out: MIC
[32] = ATCC12228, S. epidermidis ATCC 12228, 18 h, 35 °C, read-out: MIC
[33] = hospital MRSE strain 459/11, read-out: MIC
[34] = hospital MRSE strain 470/11, read-out: MIC

| Structure (SMILES) | MIC [1, 21] [µg/mL] | MIC [2, 22] [µg/mL] | MIC [3, 23] [µg/mL] | MIC [4, 24] [µg/mL] | MIC [5, 25] [µg/mL] | MIC (range over MRSA and MRSE) [6] [µg/mL] | MIC [7] [µg/mL] | MIC [8, 26] [µg/mL] | IC50 [9] [µM] | IR LoVo/DX [9] | SI LoVo/DX [9] | IC50 ([10]; SRB, mean ± SD) [µM] | SI LoVo [10] | MIC [11, 27] [µg/mL] | MIC [12] [µg/mL] | MIC [13, 28] [µg/mL] | MIC [14, 29] [µg/mL] | MIC [15, 30] [µg/mL] | MIC [16] [µg/mL] | MIC [17, 31] [µg/mL] | other results |
| --- | --- | --- | --- | --- | --- | --- | --- | --- | --- | --- | --- | --- | --- | --- | --- | --- | --- | --- | --- | --- | --- |
| CC[C@H](C(=O)NCc1ccc(F)cc1)C1CC[C@H](C)C([C@@H](C)[C@H](O)[C@H](C)C(=O)[C@H](CC)C2O[C@]3(C=C[C@@H](O)C4(CC[C@@](C)(C5CC[C@](O)(CC)[C@H](C)O5)O4)O3)[C@H](C)C[C@@H]2C)O1 (some centres unmarked) [F-p] | 16 (≈ 18.6 µM) | 32 (≈ 37.3 µM) | 64 (≈ 74.6 µM) | 32 (≈ 37.3 µM) | 16 (≈ 18.6 µM) | 16 to 128 | 50 (≈ 58.3 µM) | 64 (≈ 74.6 µM) | 3.29 ± 0.91 | 0.53 | 2.62 | 6.18 ± 0.91 | 1.40 | 32 (≈ 37.3 µM) | 50 (≈ 58.3 µM) | 64 (≈ 74.6 µM) | 32 (≈ 37.3 µM) | 16 (≈ 18.6 µM) | 50 (≈ 58.3 µM) | 32 (≈ 37.3 µM) | MIC [18, 32]: 16 µg/mL (≈ 18.6 µM); MIC [19, 33]: 32 µg/mL (≈ 37.3 µM); MIC [20, 34]: 32 µg/mL (≈ 37.3 µM) |
| CC[C@H](C(=O)NCc1ccc([N+](=O)[O-])cc1)C1CC[C@H](C)C([C@@H](C)[C@H](O)[C@H](C)C(=O)[C@H](CC)C2O[C@]3(C=C[C@@H](O)C4(CC[C@@](C)(C5CC[C@](O)(CC)[C@H](C)O5)O4)O3)[C@H](C)C[C@@H]2C)O1 (some centres unmarked) [NO2-p] | 128 (≈ 145 µM) | 128 (≈ 145 µM) | 128 (≈ 145 µM) | 256 (≈ 289 µM) | 128 (≈ 145 µM) | 128 to 256 | 50 (≈ 56.5 µM) | 256 (≈ 289 µM) | 20.4 ± 8.63 | 1.53 | 0.34 | 13.3 ± 1.94 | 0.52 | 128 (≈ 145 µM) | 50 (≈ 56.5 µM) | 256 (≈ 289 µM) | 128 (≈ 145 µM) | 256 (≈ 289 µM) | 50 (≈ 56.5 µM) | 256 (≈ 289 µM) | MIC [18, 32]: 128 µg/mL (≈ 145 µM); MIC [19, 33]: 128 µg/mL (≈ 145 µM); MIC [20, 34]: 256 µg/mL (≈ 289 µM) |
| CC[C@@H](C(=O)[C@@H](C)[C@@H](O)[C@H](C)[C@@H]1O[C@@H]([C@@H](CC)C(=O)O)CC[C@@H]1C)[C@H]1O[C@]2(C=C[C@@H](O)[C@]3(CC[C@@](C)([C@H]4CC[C@](O)(CC)[C@H](C)O4)O3)O2)[C@H](C)C[C@@H]1C [SAL, Salinomycin] |  |  |  |  |  |  | 25 (≈ 33.3 µM) |  | 0.81 ± 0.32 | 1.72 | 16.07 |  | 27.70 |  | 25 to 50 (≈ 33.3 to 66.6 µM) |  |  |  | 25 (≈ 33.3 µM) |  | MIC ([1]; MRSA): 16 µg/mL (≈ 21.3 µM); MIC ([2]; ATCC29213, 18 h): 4 µg/mL (≈ 5.33 µM); MIC ([3]; MRSE): 16 µg/mL (≈ 21.3 µM); MIC ([4]; MRSE): 16 µg/mL (≈ 21.3 µM); MIC ([5]; ATCC6538, 18 h): 2 µg/mL (≈ 2.66 µM); MIC ([8]; MRSA): 16 µg/mL (≈ 21.3 µM); IC50 [10]: 0.47 ± 0.08 µM; MIC ([11]; ATCC35984, 18 h): 2 µg/mL (≈ 2.66 µM); MIC ([13]; MRSE): 16 µg/mL (≈ 21.3 µM); MIC ([14]; ATCC25923, 18 h): 2 µg/mL (≈ 2.66 µM); MIC ([15]; MRSE): 8 µg/mL (≈ 10.7 µM); MIC ([17]; MRSA): 16 µg/mL (≈ 21.3 µM); MIC ([18]; ATCC12228, 18 h): 2 µg/mL (≈ 2.66 µM); MIC ([19]; MRSE): 16 µg/mL (≈ 21.3 µM); MIC ([20]; MRSE): 16 µg/mL (≈ 21.3 µM) |
